Literature values in patent publication US20080213374A1, “NANOPARTICULATE SORAFENIB FORMULATIONS” (Elan Pharma International Limited, priority 2006, published 2008).

| solubility in PEG 400 (PEG 400) | solubility in aqueous media (aqueous media) | solubility in ethanol (ethanol) | solubility in water | SMILES |
| --- | --- | --- | --- | --- |
| soluble | practically insoluble | slightly soluble | practically insoluble | CNC(=O)c1cc(Oc2ccc(NC(=O)Nc3ccc(Cl)c(C(F)(F)F)c3)cc2)ccn1.Cc1ccc(S(=O)(=O)O)cc1 [Sorafenib tosylate, 4-(4-{3-[4-Chloro-3-(trifluoromethyl)phenyl]ureido}phenoxy)-N2-methylpyridine-2-carboxamide 4-methylbenzenesulfonate] |
|  |  |  | practically insoluble | CNC(=O)c1cc(Oc2ccc(NC(=O)Nc3ccc(Cl)c(C(F)(F)F)c3)cc2)ccn1 [Sorafenib] |
